# Tested on: production of IgE antibody
# Assay: Evaluation of inhibitory effect on production of IgE antibody (mouse spleen B cells cultured with LPS and IL-4, IgE in supernatant by ELISA)
# Assay type: cell-based
# Conditions: test agent at 10^-5 M; mouse (Balb/C) B cells, LPS + mouse IL-4, IgE in culture supernatant by ELISA
# Method: Evaluation of inhibitory effect on production of IgE antibody:
# A spleen was enucleated from a mouse (Balb/C, male, aged 8 weeks) and shredded in 0.3% BSA/HBSS to prepare single cells by means of a 200-mesh screen. Further, the single cells were hemolyzed by 0.75% ammonium chloride-17 mM Tris solution to prepare a splenocyte suspension (1×10^7/ml) using RPMI 1640 medium/25 mM HEPES/0.3% BSA. After the suspension was reacted with a mouse anti-mouse Thy-1.2 monoclonal antibody (product of Cedarlane Co.) at 4° C. for 1 hour, the reaction mixture was centrifuged, and the sediment cells were suspended again (1×10^7/ml, RPMI/HEPES/BSA). After the suspension was then reacted with a low-cytotoxic rabbit complement (product of Cedarlane Co.) at 37° C. for 1 hour, killed cells were removed by specific gravity centrifugation using lympholyte M (product of Cedarlane Co.) to obtain a B cell fraction as viable cells.
# After B cells (10^5/0.2 ml/well) were cultured for a day together with LPS (E. coli 026:B6, product of DIFCO Co.) using a 96-well plate, mouse IL-4 (product of Genzyme Co.) was added to conduct culture further for 7 days.
# Each test was added on the first day of the culture, and the amount of IgE in a culture supernatant was meausred by ELISA after the culture, thereby calculating out the inhibitory effect of the agent on the production of an IgE antibody.
row,SMILES,Inhibitory effect on production of IgE (%)
1,"COc1cc(/C=C/C=C/C(=O)Nc2cccnc2NC(=O)/C=C/C=C/c2cc(OC)c(OC)c(OC)c2)cc(OC)c1OC [Example 38, 2,3-bis[5-(3,4,5-trimethoxyphenyl)-penta-(2E,4E)-dienoylamino]pyridine]",80
2,"COc1cc(/C=C/C=C/C(=O)Nc2ccccc2NC(=O)/C=C/C=C/c2cc(OC)c(OC)c(OC)c2)cc(OC)c1OC [Example 26, N,N′-bis[5-(3,4,5-trimethoxyphenyl)-penta-(2E,4E)-dienoyl]-1,2-diaminobenzene]",85
3,"COc1cc(/C=C/C=C/C(=O)NCc2ccc(CNC(=O)/C=C/C=C/c3cc(OC)c(OC)c(OC)c3)cc2)cc(OC)c1OC [Example 22, N,N′-bis[5-(3,4,5-trimethoxyphenyl)-penta-(2E,4E)-dienoyl]-1,4-bis(aminomethyl)benzene]",90
4,"COc1cc(/C=C/C=C/C(=O)N[C@@H]2CCCC[C@H]2NC(=O)/C=C/C=C/c2cc(OC)c(OC)c(OC)c2)cc(OC)c1OC (relative stereo) [Example 15, trans-N,N′-bis[5-(3,4,5-trimethoxy-phenyl)penta-(2E,4E)-dienoyl]-1,2-diaminocyclohexane]",100
5,"COc1cc(/C=C/C=C/C(=O)N(C)CCCCCCN(C)C(=O)/C=C/C=C/c2cc(OC)c(OC)c(OC)c2)cc(OC)c1OC [Example 5, N,N′-bis[5-(3,4,5-trimethoxyphenyl)-penta-(2E,4E)-dienoyl]-N,N′-dimethyl-1,6-diaminohexane]",90

# — patent US6576642B2, “Diamide compounds and compositions containing the same” (Kowa Co., Ltd., priority 1996, dated 2003)
